According to US20220356174A1, “PYRIDIN-2-ONE COMPOUNDS USEFUL AS SMARCA2 ANTAGONISTS” (Epizyme, Inc., priority 2018, published 2022):
Like-named read-outs stand apart in the source and are kept apart here.

Columns and labels:
[1] = biological target: T1, FL-SMARCA2 (full-length human SMARCA2 isoform 1) (Homo sapiens, UniProt P51531); assay: SMARCA2 ATPase activity assay (ADP-Glo, chicken mononucleosome substrate); format: biochemical; settings: ATPase assay, enzyme 5 nM, ATP 250 uM, chicken mononucleosome 10 nM, 30 min preincubation
T1 construct: FLAG tag (YKDDDDK) (C); made in house; host or cells: Sf21 insect cells (baculovirus, pFastBacI)
T1 sequence (P51531 with tags, fused parts or gaps): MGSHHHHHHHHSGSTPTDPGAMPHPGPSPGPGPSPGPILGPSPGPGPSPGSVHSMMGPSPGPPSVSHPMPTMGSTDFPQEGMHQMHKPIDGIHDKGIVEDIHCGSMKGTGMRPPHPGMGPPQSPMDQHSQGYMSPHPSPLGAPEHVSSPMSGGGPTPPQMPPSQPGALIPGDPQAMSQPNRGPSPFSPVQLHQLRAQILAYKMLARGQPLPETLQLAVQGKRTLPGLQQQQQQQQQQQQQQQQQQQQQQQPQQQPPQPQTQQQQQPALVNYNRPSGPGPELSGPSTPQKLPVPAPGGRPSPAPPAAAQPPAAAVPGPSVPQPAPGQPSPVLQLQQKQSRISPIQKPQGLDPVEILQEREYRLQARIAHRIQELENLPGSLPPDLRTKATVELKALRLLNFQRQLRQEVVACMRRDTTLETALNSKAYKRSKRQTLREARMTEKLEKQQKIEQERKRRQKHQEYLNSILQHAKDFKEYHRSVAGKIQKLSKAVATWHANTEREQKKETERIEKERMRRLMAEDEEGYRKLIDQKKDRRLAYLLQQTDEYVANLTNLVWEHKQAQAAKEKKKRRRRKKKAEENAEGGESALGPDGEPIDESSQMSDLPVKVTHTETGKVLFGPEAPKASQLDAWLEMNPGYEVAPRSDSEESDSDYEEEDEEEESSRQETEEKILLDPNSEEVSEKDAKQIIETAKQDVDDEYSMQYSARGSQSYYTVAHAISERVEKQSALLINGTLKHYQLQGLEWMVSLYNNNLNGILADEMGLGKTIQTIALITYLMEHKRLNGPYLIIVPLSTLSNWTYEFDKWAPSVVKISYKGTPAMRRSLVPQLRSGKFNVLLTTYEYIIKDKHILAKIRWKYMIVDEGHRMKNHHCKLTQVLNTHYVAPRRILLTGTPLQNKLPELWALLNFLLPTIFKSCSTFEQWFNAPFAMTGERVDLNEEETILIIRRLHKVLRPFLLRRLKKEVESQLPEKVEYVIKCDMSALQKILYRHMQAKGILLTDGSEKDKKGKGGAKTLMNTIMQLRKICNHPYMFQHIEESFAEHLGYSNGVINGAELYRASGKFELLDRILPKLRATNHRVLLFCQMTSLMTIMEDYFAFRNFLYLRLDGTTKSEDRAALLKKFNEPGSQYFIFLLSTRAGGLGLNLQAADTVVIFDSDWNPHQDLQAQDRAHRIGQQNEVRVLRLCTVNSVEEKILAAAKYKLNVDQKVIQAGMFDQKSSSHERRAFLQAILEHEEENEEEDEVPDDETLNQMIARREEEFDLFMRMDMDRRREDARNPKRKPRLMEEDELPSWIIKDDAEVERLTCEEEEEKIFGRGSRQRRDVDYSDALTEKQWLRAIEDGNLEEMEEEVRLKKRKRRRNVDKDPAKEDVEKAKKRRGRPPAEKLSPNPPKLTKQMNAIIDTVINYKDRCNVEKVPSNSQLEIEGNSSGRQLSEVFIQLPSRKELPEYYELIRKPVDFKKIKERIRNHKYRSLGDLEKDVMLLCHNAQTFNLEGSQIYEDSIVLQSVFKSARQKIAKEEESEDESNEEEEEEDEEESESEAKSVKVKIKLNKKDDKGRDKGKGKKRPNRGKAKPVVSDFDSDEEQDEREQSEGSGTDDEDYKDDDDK

A549 cells = assay: High-throughput proliferation (HTP) assay for A549 cells (CellTiter-Glo, 7 days); format: cell-based; settings: Homo sapiens, 168 h, read-out: A549 SMARCA2 IC50
Procedure, shortened: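 A549 cells plated at 62.5 cells/well in F12K + 10% HI-FBS onto pre-dispensed compound, grown 7 days at 37° C., 5% CO2. Viability by CellTiter-Glo luminescence after 30 min at RT; EC50/IC50 from DMSO (0%) and 10 μM Doxorubicin (100%) inhibition controls.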

H358 cells = assay: High-throughput proliferation (HTP) assay for H358 cells (CellTiter-Glo, 7 days); format: cell-based; settings: Homo sapiens, NCI-H358, 168 h, read-out: H358 SMARCA2 IC50
Procedure, shortened: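 Cells were plated at 1,000 cells/well in RPMI 1640 + 10% HI-FBS + 1% pen/strep on pre-dispensed compound and incubated 7 days at 37 °C, 5% CO2. Viability was read as ATP luminescence with CellTiter-Glo after 30 min at RT. DMSO served as 0% and 10 µM doxorubicin as 100% inhibition for EC50/IC50.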

FL-SMARCA4 = FL-SMARCA4 (Homo sapiens, UniProt P51532); assay: SMARCA4 ATPase activity assay (ADP-Glo, chicken mononucleosome substrate)
Sequence of FL-SMARCA4 (P51532 whole entry): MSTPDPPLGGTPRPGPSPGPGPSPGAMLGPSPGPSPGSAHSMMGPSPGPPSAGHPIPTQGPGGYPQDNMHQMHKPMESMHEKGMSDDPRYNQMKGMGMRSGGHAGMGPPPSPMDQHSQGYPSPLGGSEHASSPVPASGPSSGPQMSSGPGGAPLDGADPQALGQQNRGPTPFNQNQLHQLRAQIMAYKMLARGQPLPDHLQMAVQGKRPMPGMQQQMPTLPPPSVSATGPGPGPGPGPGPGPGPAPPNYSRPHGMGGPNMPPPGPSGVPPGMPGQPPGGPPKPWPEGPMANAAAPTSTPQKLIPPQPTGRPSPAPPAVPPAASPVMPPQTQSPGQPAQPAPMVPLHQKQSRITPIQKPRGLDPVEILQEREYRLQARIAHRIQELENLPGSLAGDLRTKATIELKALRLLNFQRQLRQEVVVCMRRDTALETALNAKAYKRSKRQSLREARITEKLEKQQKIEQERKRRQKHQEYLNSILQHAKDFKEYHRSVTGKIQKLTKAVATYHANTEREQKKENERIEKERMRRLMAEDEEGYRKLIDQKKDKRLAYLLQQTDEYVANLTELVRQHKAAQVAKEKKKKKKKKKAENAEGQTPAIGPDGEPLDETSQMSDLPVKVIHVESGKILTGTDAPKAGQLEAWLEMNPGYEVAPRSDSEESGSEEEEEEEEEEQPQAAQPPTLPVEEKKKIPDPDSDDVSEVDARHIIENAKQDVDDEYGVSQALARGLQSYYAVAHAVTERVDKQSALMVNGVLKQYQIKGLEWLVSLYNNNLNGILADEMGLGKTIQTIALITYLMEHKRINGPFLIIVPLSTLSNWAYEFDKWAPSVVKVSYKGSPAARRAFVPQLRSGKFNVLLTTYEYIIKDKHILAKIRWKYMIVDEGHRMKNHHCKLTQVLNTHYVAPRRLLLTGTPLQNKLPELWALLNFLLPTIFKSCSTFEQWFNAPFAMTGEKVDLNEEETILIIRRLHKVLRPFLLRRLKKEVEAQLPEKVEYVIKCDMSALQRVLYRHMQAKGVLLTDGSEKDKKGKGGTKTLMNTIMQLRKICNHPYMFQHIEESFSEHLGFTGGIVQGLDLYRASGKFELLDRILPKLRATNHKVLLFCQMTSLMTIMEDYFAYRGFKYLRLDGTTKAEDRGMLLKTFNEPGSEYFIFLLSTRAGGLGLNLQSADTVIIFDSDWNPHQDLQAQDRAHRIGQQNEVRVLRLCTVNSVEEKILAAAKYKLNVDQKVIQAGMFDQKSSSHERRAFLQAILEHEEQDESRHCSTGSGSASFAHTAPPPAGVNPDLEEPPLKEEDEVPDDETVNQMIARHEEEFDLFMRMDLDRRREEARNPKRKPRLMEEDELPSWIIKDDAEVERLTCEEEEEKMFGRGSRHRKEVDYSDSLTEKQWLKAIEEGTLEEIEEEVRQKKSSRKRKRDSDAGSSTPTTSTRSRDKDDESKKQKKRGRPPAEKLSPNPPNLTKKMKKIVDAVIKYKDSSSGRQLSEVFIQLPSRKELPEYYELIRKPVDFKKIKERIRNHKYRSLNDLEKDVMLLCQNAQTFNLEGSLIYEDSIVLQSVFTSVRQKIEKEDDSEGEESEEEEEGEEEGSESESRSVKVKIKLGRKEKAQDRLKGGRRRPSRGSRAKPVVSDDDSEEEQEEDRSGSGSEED

[2] = Table 3d.1, read-out: FL-SMARCA2 IC>50
[3] = FL-SMARCA4 IC>50, Table 3c.2, ATPase assay, enzyme 5 nM, ATP 250 uM, chicken mononucleosome 10 nM, 30 min preincubation

SMILES | IC50 [1, 2] | IC50 (A549 cells) | IC50 (H358 cells) | IC50 (FL-SMARCA4; FL-SMARCA4 IC50) | IC50 ([1]; Table 3c.1) | IC50 (FL-SMARCA4; [3])
O=C(Nc1cc(F)c(=O)n(CC(F)F)c1)c1cc(C#Cc2ccc3nccn3c2)c(Cl)s1 [Compound 115d] | 35.8 nM | 2.08 µM | > 10 µM | 99.3 nM |  | 
O=C1CC(C#Cc2cc(C(=O)Nc3cc(F)c(=O)n(CC(F)F)c3)sc2Cl)CN1 (stereo not shown) [Compound 116c] |  | 3.79 µM | > 10 µM |  | 206 nM | 548 nM
O=C(Nc1cc(F)c(=O)n(CC(F)F)c1)c1cc(C#CCn2ccnc2)c(Cl)s1 [Compound 116d] | 252 nM | 8.92 µM | > 10 µM | 673 nM |  | 
N#Cc1nc(C#Cc2cc(C(=O)Nc3cc(F)c(=O)n(CC(F)F)c3)sc2Cl)cs1 [Compound 117c] |  | 1.82 µM | 1.49 µM |  | 5.22 nM | 6.99 nM
N#Cc1cc(C(=O)Nc2cc([N+](=O)[O-])c(=O)n(CC(F)F)c2)sc1C(F)(F)F [Compound 117d] | 22400 nM | 1.96 µM | 2.27 µM | > 50000 nM |  | 
CN1CC(C#Cc2cc(C(=O)Nc3cc(F)c(=O)n(CC(F)F)c3)sc2Cl)CCC1=O (stereo not shown) [Compound 118d] | 245 nM | 7.18 µM | > 10 µM | 544 nM |  | 
O=C(Nc1cc(F)c(=O)n(CC(F)F)c1)c1cc(C#CC2CCn3cnnc3C2)c(Cl)s1 (stereo not shown) [Compound 119d] | 961 nM | > 10 µM | > 10 µM | 2220 nM |  | 
NC(=O)Cn1cc(C#Cc2cc(C(=O)Nc3cc(F)c(=O)n(CC(F)F)c3)sc2Cl)cn1 [Compound 120c] |  | > 10 µM | > 10 µM |  | 90.9 nM | 239 nM
O=C(Nc1cc(F)c(=O)n(CC(F)F)c1)c1cc(C#C[C@H]2CCC[C@@H](O)C2)c(Cl)s1 [Compound 120d] | 70 nM | 2.12 µM | > 10 µM | 201 nM |  | 
CNC(=O)Cn1cc(C#Cc2cc(C(=O)Nc3cc(F)c(=O)n(CC(F)F)c3)sc2Cl)cn1 [Compound 121c] |  | > 10 µM | > 10 µM |  | 191 nM | 384 nM
CC1(C)CC(C#Cc2cc(C(=O)Nc3cc(F)c(=O)n(CC(F)F)c3)sc2Cl)CC(C)(C)N1 [Compound 121d] | 16800 nM | 5.03 µM | 7.38 µM | 17300 nM |  | 
O=C(Nc1cc(F)c(=O)n(CC(F)F)c1)c1cc(C#Cc2cnn(CCO)c2)c(Cl)s1 [Compound 122c] |  | 4.6 µM | > 10 µM |  | 52 nM | 130 nM
O=C(Nc1cc(F)c(=O)n(CC(F)F)c1)c1cc(C#Cc2ccc3ccnn3c2)c(Cl)s1 [Compound 122d] | 253 nM | 8.44 µM | > 10 µM | 835 nM |  | 
CN(C)CCn1cc(C#Cc2cc(C(=O)Nc3cc(F)c(=O)n(CC(F)F)c3)sc2Cl)cn1 [Compound 123c] |  | 3.98 µM | > 10 µM |  | 471 nM | 1070 nM
O=C(Nc1cc(F)c(=O)n(CC(F)F)c1)c1cc(C#CCn2cccn2)c(Cl)s1 [Compound 123d] | 520 nM | > 10 µM | > 10 µM | 1580 nM |  | 
Nc1cc(C#Cc2cc(C(=O)Nc3cc(F)c(=O)n(CC(F)F)c3)sc2Cl)ccn1 [Compound 124c] |  | 1.07 µM | 7.23 µM |  | 10.8 nM | 17.7 nM
O=C(Nc1cc(F)c(=O)n(CC(F)F)c1)c1cc(-c2ccco2)on1 [Compound 124d] | > 50000 nM | > 10 µM | > 10 µM | > 50000 nM |  | 

SMILES | IC50 [1, 2] | IC50 (A549 cells) | IC50 (H358 cells) | IC50 (FL-SMARCA4; FL-SMARCA4 IC50) | IC50 ([1]; Table 3c.1) | IC50 (FL-SMARCA4; [3])
NCc1nc(C#Cc2cc(C(=O)Nc3cc(F)c(=O)n(CC(F)F)c3)sc2Cl)cs1 [Compound 125c] |  | 4.46 µM | > 10 µM |  | 52.2 nM | 166 nM
O=C(Nc1cc(F)c(=O)n(CC(F)F)c1)c1cc(C#Cc2csc(C(F)(F)F)n2)c(Cl)s1 [Compound 126c] |  | 4.01 µM | > 10 µM |  | 235 nM | 957 nM
O=C(Nc1cc(F)c(=O)n(CC(F)F)c1)c1cc(C#CCn2cnnc2)c(Cl)s1 [Compound 126d] | 1580 nM | > 10 µM | > 10 µM | 4370 nM |  | 
O=C(Nc1cc(F)c(=O)n(CC(F)F)c1)c1cc(C#CCn2cncn2)c(Cl)s1 [Compound 127d] | 586 nM | > 10 µM | > 10 µM | 1450 nM |  | 
CN(C)Cc1cccc(C#Cc2cc(C(=O)Nc3cc(F)c(=O)n(CC(F)F)c3)sc2Cl)c1 [Compound 128c] |  | 5.13 µM | 3.89 µM |  | 211 nM | 823 nM
Cn1cc(C#Cc2cc(C(=O)Nc3cc([N+](=O)[O-])c(=O)n(CC(F)F)c3)sc2C(F)(F)F)cn1 [Compound 128d] | > 50000 nM | 3.24 µM | 4.05 µM | > 50000 nM |  | 
CNC(=O)c1cncc(C#Cc2cc(C(=O)Nc3cc(F)c(=O)n(CC(F)F)c3)sc2Cl)c1 [Compound 129c] |  | > 10 µM | > 10 µM |  | 51.3 nM | 143 nM
O=C(Nc1cc(F)c(=O)n(CC(F)F)c1)c1cc(C#C[C@H]2CCC[C@H](O)C2)c(Cl)s1 [Compound 129d] | 58.4 nM | 2.17 µM | > 10 µM | 161 nM |  | 
CNC(=O)c1cc(C#Cc2cc(C(=O)Nc3cc(F)c(=O)n(CC(F)F)c3)sc2Cl)ccn1 [Compound 130c] |  | 1.21 µM | > 10 µM |  | 16.6 nM | 44 nM
O=C(Nc1cc(F)c(=O)n(CC(F)F)c1)c1cc(C#Cc2nncs2)c(Cl)s1 [Compound 130d] | 30.9 nM | 3.37 µM | 6.75 µM | 132 nM |  | 
O=C(O)c1cccc(C#Cc2cc(C(=O)Nc3cc(F)c(=O)n(CC(F)F)c3)sc2Cl)c1 [Compound 131c] |  | > 10 µM | > 10 µM |  | 8.68 nM | 13.7 nM
CC(N)C#Cc1sc(C(=O)Nc2cc(F)c(=O)n(CC(F)F)c2)cc1Cl (stereo not shown) [Compound 131d] | > 50000 nM | > 10 µM | > 10 µM | > 50000 nM |  | 
CN1CCCC(C#Cc2sc(C(=O)Nc3cc(F)c(=O)n(CC(F)F)c3)cc2Cl)C1 (stereo not shown) [Compound 132d] | > 50000 nM | 7.99 µM | > 10 µM | > 50000 nM |  | 
O=C(Nc1cc(F)c(=O)n(CC(F)F)c1)c1cc(C#C[C@H]2C[C@H](CO)C2)c(Cl)s1 [Compound 133d] | 46.1 nM | 2.89 µM | > 10 µM | 165 nM |  | 
N#Cc1sc(C(=O)Nc2cc(F)c(=O)n(CC(F)F)c2)cc1C#Cc1ccncc1 [Compound 134c] |  | 0.909 µM | 3.89 µM |  | 8.12 nM | 12.8 nM
O=C(Nc1cc(F)c(=O)n(CC(F)F)c1)c1cc(C#C[C@H]2C[C@@H](CO)C2)c(Cl)s1 [Compound 134d] | 18.8 nM | 1.33 µM | > 10 µM | 58.7 nM |  | 
O=C(Nc1cc(F)c(=O)n(CC(F)F)c1)c1cc(C#CC23CC(CO)(C2)C3)c(Cl)s1 [Compound 135d] | 160 nM | 2.38 µM | > 10 µM | 334 nM |  | 
